Assay results taken from article PMC4201977 (Journal of immunology (Baltimore, Md. : 1950), 2014).
Ends that are not written are not given here.

What was measured:
[1] = tested on: monocyte-derived DCs; test: Proteolytic activities in live DCs upon TLR ligand maturation; assay type: cell-based, human
[2] = Cytosolic stability of optimal epitopes in iDC extracts; assay type: in vitro ADME; conditions: human, iDC cytosolic extract, pH 7.4
[3] = Cytosolic stability of optimal epitopes in iMP extracts; assay type: in vitro ADME; conditions: human, iMP cytosolic extract, pH 7.4
[4] = 24h post stimulation, maturing over immature cells, n=2 donors

Compound | change of aminopeptidases hydrolytic activities in maturing DCs ([1]; 5h, 24h, 48h post stimulation) | change of chymotryptic activities in maturing DCs ([1]; 5h, 24h, 48h post stimulation) | decrease of proteasomal caspase-like activity in maturing DCs [1, 4] | decrease of proteasomal tryptic activity in maturing DCs [1, 4] | half-life [2] | half-life [3]
CCOCc1nc2c([nH]1)c(N)nc1ccccc12 [CL097] | unchanged | not affected | 30% | 30% |  | 
CC[C@H](C)[C@H](NC(=O)[C@@H](NC(=O)[C@H](CCC(=O)O)NC(=O)[C@@H]1CCCN1C(=O)[C@H](CO)NC(=O)[C@H](Cc1ccccc1)NC(=O)[C@H](C)NC(=O)[C@@H](N)CCCCN)C(C)C)C(=O)N1CCC[C@H]1C(=O)N[C@@H](CCSC)C(=O)N[C@@H](Cc1ccccc1)C(=O)O [KF11] |  |  |  |  | 22.1 min | 20.4 min
ISPRTLNAW [ISW9] |  |  |  |  | 7 min | 9.4 min
